Test results as given in patent publication US10004739B2, “Methods for treating cancer by inhibiting FGFR3/TACC3 fusion protein” (Astellas Pharma Inc., priority 2012, dated 2018).

Assays:
[1] = test system: cells expressing FGFR3-TACC3 fusion gene; settings: reported in Science 2012; 337:1231-5; cited from earlier work
[2] = test system: FGFR3-TACC3_v1 expression/NIH3T3 cells; assay: Anchorage-independent cell proliferation, spheroid plate, CellTiter-Glo; settings: Mus musculus, NIH3T3, 96 h, read-out: growth inhibition rate (%), v1
Protocol: (§4) The FGFR3-TACC3_v1 expression/NIH3T3 cells were seeded in a 96-well spheroid plate (Sumilon Cell-Tight Spheroid 96U; SUMITOMO BAKELITE CO., LTD.) with D-MEM containing 10% fetal bovine serum, such that the cell count in each well became 1×10^3. Moreover, as a positive control, a well added only with the medium was prepared. […] As a negative control, DMSO as a vehicle of the compound was added thereto at the same concentration (0.1%) as set at the time of adding the compound. Thereafter, the cells were cultured for 4 days at 37° C. in the presence of 5% CO2, and a reagent for cell count measurement (CellTiter-Glo™ Luminescent Cell Viability Assay; Promega Corporation) was added thereto. The resultant was stirred for 20 minutes, and the cell count was measured using a luminometer.
(§5) Moreover, the respective compounds were added such that the final concentration thereof became 100 nM, 10 nM, and 1 nM.

[3] = test system: FGFR3-TACC3_v2 expression/NIH3T3 cells; assay: as above; settings: Mus musculus, NIH3T3, 96 h, read-out: growth inhibition rate (%), v2
Protocol: as §4, §5

[4] = test system: FGFR3-TACC3_v3 expression/NIH3T3 cells; assay: as above; settings: Mus musculus, NIH3T3, 96 h, read-out: growth inhibition rate (%), v3
Protocol: as §4, §5

[5] = test system: FGFR3-TACC3_v1 (N-FLAG) fusion polypeptide; assay: In vitro kinase activity of FGFR3-TACC3_v1 (N-FLAG) fusion polypeptide (HTRF KinEASE-TK, peptide substrate); format: biochemical, human; settings: ATP 100 μM
[6] = test system: FGFR3-TACC3_v3 (N-FLAG) fusion polypeptide; assay: In vitro kinase activity of FGFR3-TACC3_v3 (N-FLAG) fusion polypeptide (HTRF KinEASE-TK, peptide substrate); format: biochemical, human; settings: ATP 100 μM
RT-112 cells = assay: Anchorage-independent proliferation of RT-112 bladder cancer cell line, spheroid plate, CellTiter-Glo; format: cell-based; settings: Homo sapiens, RT-112, 120 h; final concentration 100 nM; Example 16: 2×10^3 cells per well, 5 days; read-out: growth inhibition rate (%), RT-112
Protocol: Moreover, as a positive control, a well added only with the medium was prepared. […] As a negative control, DMSO as a vehicle of the compound was added thereto at the same concentration (0.1%) at the time of adding the compound. Thereafter, the cells were cultured for 5 days at 37° C. in the presence of 5% CO2, and a reagent for cell count measurement (CellTiter-Glo™ Luminescent Cell Viability Assay; Promega Corporation) was added thereto. The resultant was stirred for 20 minutes, and the cell count was measured using a luminometer.
as §5

[7] = test system: FGFR3-TACC3_v2 (N-FLAG) fusion polypeptide; assay: In vitro kinase activity of FGFR3-TACC3_v2 (N-FLAG) fusion polypeptide (HTRF KinEASE-TK, peptide substrate); format: biochemical, human; settings: ATP 100 μM
FGFR3-TACC3_v2 = molecular target: T1, FGFR3-TACC3_v2 (Homo sapiens, UniProt P22607, F384L); assay: Kinase inhibition in tumor: phosphorylated FGFR3/total FGFR3 by ELISA; format: in vivo, nude mice; settings: 4 hours after the final administration; dosing as Example 13
T1 construct: in order to express a full length of ORF of FGFR3-TACC3_v2 as a protein; expressed in transfected cells; host or cells: NIH3T3 cells infected with FGFR3-TACC3_v2/pMXs-puro retrovirus, inoculated into nude mice
Protocol: (§1) For the test, 5 mice were assigned to each of the vehicle group and the compound group, and 4 hours after the final administration, tumors were extracted by dissection. Thereafter, by using a lysis solution (Cell Lysis Buffer; Cell Signaling Technology, Inc., Phosphatase Inhibitor Cocktail; Thermo Fisher Scientific Inc., Complete; Roche, Ltd.), protein extracts of the tumors were rapidly prepared, and the total FGFR3 level and a phosphorylated FGFR3 level of the tumors were measured using an ELISA kit (R&D Systems). ELISA was performed according to the attached procedure manual, but detection was performed in a different way in which the chemiluminescence detection is conducted using a chemiluminescent reagent (BM chemiluminescence ELISA substrate; Roche, Ltd.) and a luminometer (ARVO; PerkinElmer Inc.).
(§2) A level obtained by correcting the phosphorylated FGFR3 level by using the total FGFR3 level (phosphorylated FGFR3 level/total FGFR3 level) was taken as a phosphorylation level.

FGFR3-TACC3_v3 = molecular target: T2, FGFR3-TACC3_v3 (Homo sapiens, UniProt P22607); assay: as above; format: in vivo, nude mice; settings: 4 hours after the final administration; dosing as Example 13
T2 construct: in order to express a full length of ORF of FGFR3-TACC3_v3 as a protein; expressed in transfected cells; host or cells: NIH3T3 cells infected with FGFR3-TACC3_v3/pMXs-puro retrovirus, inoculated into nude mice
Protocol: as §1, §2

[8] = molecular target: T3, FGFR3-TACC3 fusion polypeptide v1 (Homo sapiens, UniProt P22607); assay: as above; format: in vivo, nude mice; settings: 4 hours after the final administration; dosing as Example 13
T3 construct: expressed in transfected cells; host or cells: NIH3T3 cells infected with FGFR3-TACC3_v1/pMXs-puro retrovirus, inoculated into nude mice
Protocol: as §1, §2

[9] = test system: FGFR3-TACC3_v1 expression/NIH3T3 cells (tumors); assay: Anti-tumorigenic activity in nude mice bearing subcutaneous tumors; format: in vivo; settings: 30 mg/kg orally once a day for 11 days
From the text: (§3) Cg-Foxn1Nu/Crlcrlj (Nu/Nu) nude mice (Charles River Laboratories, Japan) by means of subcutaneous injection performed in the back of the mice. Three days after the inoculation, AZD4547 and BGJ398 which are FGFR3-TACC3 fusion polypeptide inhibitors were started to be administered. For the test, 4 to 5 mice were assigned to each of the vehicle group and the compound group, AZD4547 and BGJ398 were suspended in a vehicle composed of 0.5% methyl cellulose (Shin-Etsu Chemical Co., Ltd.)/99.5% distilled water, and each of the compounds was orally administered at a dosage of 30 mg/kg. The administration was performed once a day for 11 days, and the body weight of mice and a tumor diameter were measured every 2 or 3 days. A tumor volume was calculated using the following formula. [Tumor volume (mm^3)]=[major axis of tumor (mm)]×[minor axis of tumor (mm)]^2×0.5

[10] = test system: FGFR3-TACC3_v3 expression/NIH3T3 cells (tumors); assay: as above; format: in vivo; settings: 30 mg/kg orally once a day for 11 days
From the text: as §3

[11] = test system: FGFR3-TACC3_v2 expression/NIH3T3 cells (tumors); assay: as above; format: in vivo; settings: 30 mg/kg orally once a day for 11 days
From the text: as §3

## COc1cc(CCc2cc(NC(=O)c3ccc(N4C[C@@H](C)N[C@@H](C)C4)cc3)[nH]n2)cc(OC)c1 [AZD4547, N-{5-[2-(3,5-dimethoxyphenyl)ethyl]-2H-pyrazol-3-yl}-4-[(3R,5S)-3,5-dimethylpiperazin-1-yl]benzamide]
[1]
  proliferation of cells expressing FGFR3-TACC3 fusion gene: inhibited the proliferation
[2]
  inhibition at 0.1 µM: 74%
[3]
  inhibition at 0.1 µM: 60%
[4]
  inhibition at 0.1 µM: 51%
[5]; final concentration 1 nM
  Inhibition against peptide substrate FGFR3-TACC3 v1: 13%
[5]; final concentration 10 nM
  Inhibition against peptide substrate FGFR3-TACC3 v1: 46%
[5]; final concentration 100 nM
  Inhibition against peptide substrate FGFR3-TACC3 v1: 69%
[6]; final concentration 1 nM
  Inhibition against peptide substrate FGFR3-TACC3 v3: 9%
[6]; final concentration 10 nM
  Inhibition against peptide substrate FGFR3-TACC3 v3: 52%
[6]; final concentration 100 nM
  Inhibition against peptide substrate FGFR3-TACC3 v3: 74%
RT-112 cells
  inhibition at 0.1 µM: 90%
[7]; final concentration 1 nM
  Inhibition against peptide substrate FGFR3-TACC3 v2: 16%
[7]; final concentration 10 nM
  Inhibition against peptide substrate FGFR3-TACC3 v2: 50%
[7]; final concentration 100 nM
  Inhibition against peptide substrate FGFR3-TACC3 v2: 77%
FGFR3-TACC3_v2
  reduction of tyrosine auto-phosphorylation in the tumor compared to the vehicle group: 54%
FGFR3-TACC3_v3
  reduction of tyrosine auto-phosphorylation in the tumor compared to the vehicle group: 78%
[8]
  reduction of tyrosine auto-phosphorylation in the tumor compared to the vehicle group: 58%
[9]
  inhibition of proliferation of tumors (tumor volume): 51%
[10]
  inhibition of growth of tumors (tumor volume): 73%
[11]
  inhibition of proliferation of tumors (tumor volume): 61%
